Blank lines part the entries; values can stand above or below the compound they belong to.
Assays:
[1] = Cytotoxicity against African green monkey Vero cells; format: toxicity, cell-based; settings: chlorocebus sabaeus, read-out: TC50 (the source's name)
[2] = Antiproliferative activity against human BC cells assessed as growth inhibition; format: functional, cell-based
KB = assay: Antiproliferative activity against human KB cells assessed as reduction in cell viability incubated for 48 hrs by MTT assay; format: functional, cell-based
Plasmodium falciparum [3] = assay: microbe, parasite or virus in culture; settings: K1
Description: Antiplasmodial activity against Plasmodium falciparum K1 assessed as inhibition of parasitic growth

Plasmodium falciparum [4] = assay: Antimalarial activity against Plasmodium falciparum HB3 assessed as inhibition of malarial growth; format: functional, organism-based
Plasmodium falciparum [5] = assay: Antimalarial activity against Plasmodium falciparum K1 assessed as inhibition of malarial growth; format: functional, organism-based
EL4 = assay: Antiproliferative activity against mouse EL4 cells assessed as cell growth inhibition incubated for 72 hrs by MTT assay; format: functional, cell-based; settings: EL4, 72 h
MCF7 = assay: Antiproliferative activity against human MCF7 cells assessed as reduction in cell viability measured after 48 hrs by SRB assay; format: functional, cell-based; settings: MCF7, 48 h
HT-29 = assay: cells; settings: Homo sapiens, HT-29, 72 h
BeWo = assay: Antiproliferative activity against human BeWo cells assessed as reduction in cell viability after 72 hrs by MTT assay; format: functional, cell-based
P388 = assay: Antiproliferative activity against mouse P388 cells assessed as cell growth inhibition incubated for 72 hrs by MTT assay; format: functional, cell-based; settings: P388, 72 h
MDA-MB-231 = assay: Antiproliferative activity against human MDA-MB-231 cells assessed as reduction in cell viability measured after 48 hrs by MTT assay; format: functional, cell-based; settings: MDA-MB-231, 48 h
A549 = assay: cells; settings: Homo sapiens, A549, 48 h

SMILES: C[C@@H]1CC[C@H]2[C@H](C[C@]3(Cc4cccc(F)c4)O[C@H]4O[C@@]5(C)CC[C@H]6[C@H](C)CC[C@@H]([C@H]3C)[C@@]46OO5)C(=O)O[C@H]3O[C@@]4(C)CC[C@@H]1[C@]32OO4
CC50 [1]: 5500 nM | IC50 [2]: 3500 nM | IC50 (KB): 4000 nM

SMILES: C[C@@H]1CC[C@H]2[C@@H](C)C(CCOC(=O)c3ccc(C(=O)OCCC4O[C@H]5O[C@@]6(C)CC[C@H]7[C@H](C)CC[C@@H]([C@H]4C)[C@@]57OO6)cc3)O[C@H]3O[C@@]4(C)CC[C@@H]1[C@]32OO4 (stereo partly drawn)
IC50 (Plasmodium falciparum [3]): 4.6 nM

SMILES: C[C@@H]1CC[C@H]2[C@@H](C)C(CSCCCSCC3O[C@H]4O[C@@]5(C)CC[C@H]6[C@H](C)CC[C@@H]([C@H]3C)[C@@]46OO5)O[C@H]3O[C@@]4(C)CC[C@@H]1[C@]32OO4 (stereo partly drawn)
IC50 (Plasmodium falciparum [3]): 13 nM

SMILES: C[C@@H]1CC[C@H]2[C@@H](C)C(CCOCc3ccccc3COCCC3O[C@H]4O[C@@]5(C)CC[C@H]6[C@H](C)CC[C@@H]([C@H]3C)[C@@]46OO5)O[C@H]3O[C@@]4(C)CC[C@@H]1[C@]32OO4 (stereo partly drawn)
IC50 (Plasmodium falciparum [4]): 1.3 nM | IC50 (Plasmodium falciparum [5]): 2.9 nM

SMILES: C[C@H]1[C@@H](CCNC(=O)CC[C@H]2O[C@H]3O[C@@]4(C)CC[C@H]5[C@H](C)CC[C@@H]([C@H]2C)[C@@]35OO4)O[C@H]2O[C@@]3(C)CC[C@H]4[C@H](C)CC[C@@H]1[C@@]24OO3
IC50 (EL4): 10100 nM | IC50 (MCF7): 8 nM | IC50 (HT-29): 1100 nM | IC50 (BeWo): 12100 nM | IC50 (P388): 16800 nM

SMILES: C[C@@H]1CC[C@H]2[C@@H](C)C(CCOC(=O)CCC(=O)OCCC3O[C@H]4O[C@@]5(C)CC[C@H]6[C@H](C)CC[C@@H]([C@H]3C)[C@@]46OO5)O[C@H]3O[C@@]4(C)CC[C@@H]1[C@]32OO4 (stereo partly drawn)
IC50 (Plasmodium falciparum [4]): 1.4 nM | IC50 (Plasmodium falciparum [5]): 1.8 nM

SMILES: C[C@@H]1CC[C@H]2[C@@H](C)C(OCCN/C(=N/c3cc(C(F)(F)F)ccc3F)NCCOC3O[C@@H]4O[C@]5(C)CC[C@@H]6[C@@H](C)CC[C@H]([C@@H]3C)[C@]46OO5)O[C@H]3O[C@@]4(C)CC[C@@H]1[C@]32OO4 (stereo partly drawn)
IC50 (MDA-MB-231): 1420 nM | IC50 (HT-29): 20 nM | IC50 (A549): 240 nM

SMILES: C[C@H]1[C@H](CCCC[C@H]2O[C@H]3O[C@@]4(C)CC[C@H]5[C@H](C)CC[C@@H]([C@H]2C)[C@@]35OO4)O[C@H]2O[C@@]3(C)CC[C@H]4[C@H](C)CC[C@@H]1[C@@]24OO3
CC50 [1]: 10000 nM | IC50 [2]: 1600 nM | IC50 (Plasmodium falciparum [5]): 1.4 nM | IC50 (KB): 1800 nM

SMILES: C[C@@H]1CC[C@H]2[C@H](C[C@]3(Cc4ccc(F)cc4)O[C@H]4O[C@@]5(C)CC[C@H]6[C@H](C)CC[C@@H]([C@H]3C)[C@@]46OO5)C(=O)O[C@H]3O[C@@]4(C)CC[C@@H]1[C@]32OO4
CC50 [1]: 1100 nM | IC50 [2]: 7400 nM | IC50 (KB): 7700 nM

SMILES: C[C@@H]1CC[C@H]2[C@@H](C)C(CCOC(=O)c3ccccc3C(=O)OCCC3O[C@H]4O[C@@]5(C)CC[C@H]6[C@H](C)CC[C@@H]([C@H]3C)[C@@]46OO5)O[C@H]3O[C@@]4(C)CC[C@@H]1[C@]32OO4 (stereo partly drawn)
IC50 (Plasmodium falciparum [4]): 1.6 nM | IC50 (Plasmodium falciparum [5]): 2.6 nM

SMILES: C[C@@H]1CC[C@H]2[C@@H](C)C(OCCN/C(=N/c3cccc(Br)c3)NCCOC3O[C@@H]4O[C@]5(C)CC[C@@H]6[C@@H](C)CC[C@H]([C@@H]3C)[C@]46OO5)O[C@H]3O[C@@]4(C)CC[C@@H]1[C@]32OO4 (stereo partly drawn)
IC50 (MDA-MB-231): 1570 nM | IC50 (HT-29): 400 nM | IC50 (A549): 360 nM

SMILES: C[C@@H]1CC[C@H]2[C@@H](C)C(OCCN/C(=N/c3ccc(OC(F)(F)F)cc3)NCCOC3O[C@@H]4O[C@]5(C)CC[C@@H]6[C@@H](C)CC[C@H]([C@@H]3C)[C@]46OO5)O[C@H]3O[C@@]4(C)CC[C@@H]1[C@]32OO4 (stereo partly drawn)
IC50 (HT-29): 240 nM | IC50 (A549): 170 nM

SMILES: C[C@@H]1CC[C@H]2[C@@H](C)C(CCOC(=O)c3cccc(C(=O)OCCC4O[C@H]5O[C@@]6(C)CC[C@H]7[C@H](C)CC[C@@H]([C@H]4C)[C@@]57OO6)c3)O[C@H]3O[C@@]4(C)CC[C@@H]1[C@]32OO4 (stereo partly drawn)
IC50 (Plasmodium falciparum [3]): 42.2 nM

SMILES: C[C@H]1[C@@H](CCCCNC(=O)CC[C@H]2O[C@H]3O[C@@]4(C)CC[C@H]5[C@H](C)CC[C@@H]([C@H]2C)[C@@]35OO4)O[C@H]2O[C@@]3(C)CC[C@H]4[C@H](C)CC[C@@H]1[C@@]24OO3
IC50 (EL4): > 30200 nM | IC50 (MCF7): > 30200 nM | IC50 (HT-29): 30500 nM | IC50 (BeWo): > 30200 nM | IC50 (P388): > 30200 nM

SMILES: C[C@@H]1CC[C@H]2[C@@H](C)C(CCS(=O)(=O)CCC3O[C@@H]4O[C@]5(C)CC[C@@H]6[C@@H](C)CC[C@H]([C@@H]3C)[C@]46OO5)O[C@H]3O[C@@]4(C)CC[C@@H]1[C@]32OO4 (stereo partly drawn)
IC50 (EL4): 820 nM | IC50 (MCF7): 40 nM | IC50 (HT-29): 580 nM | IC50 (BeWo): 1590 nM | IC50 (P388): 8550 nM

SMILES: C[C@@H]1CC[C@H]2[C@@H](C)C(CSCCCCSC3O[C@H]4O[C@@]5(C)CC[C@H]6[C@H](C)CC[C@@H]([C@H]3C)[C@@]46OO5)O[C@H]3O[C@@]4(C)CC[C@@H]1[C@]32OO4 (stereo partly drawn)
IC50 (Plasmodium falciparum [3]): 5.7 nM

SMILES: C[C@@H]1CC[C@H]2[C@@H](C)C(CCOC(=O)CCCC(=O)OCCC3O[C@H]4O[C@@]5(C)CC[C@H]6[C@H](C)CC[C@@H]([C@H]3C)[C@@]46OO5)O[C@H]3O[C@@]4(C)CC[C@@H]1[C@]32OO4 (stereo partly drawn)
IC50 (Plasmodium falciparum [4]): 1.1 nM | IC50 (Plasmodium falciparum [5]): 2.4 nM

SMILES: C[C@@H]1CC[C@H]2[C@@H](C)C(OCCN/C(=N/c3ccc(C(F)(F)F)cc3)NCCOC3O[C@@H]4O[C@]5(C)CC[C@@H]6[C@@H](C)CC[C@H]([C@@H]3C)[C@]46OO5)O[C@H]3O[C@@]4(C)CC[C@@H]1[C@]32OO4 (stereo partly drawn)
IC50 (MDA-MB-231): 1180 nM | IC50 (HT-29): 60 nM | IC50 (A549): 680 nM

SMILES: C[C@@H]1CC[C@H]2[C@@H](C)C(OCCN/C(=N/c3cccc(Cl)c3)NCCOC3O[C@@H]4O[C@]5(C)CC[C@@H]6[C@@H](C)CC[C@H]([C@@H]3C)[C@]46OO5)O[C@H]3O[C@@]4(C)CC[C@@H]1[C@]32OO4 (stereo partly drawn)
IC50 (MDA-MB-231): 1170 nM | IC50 (HT-29): 100 nM | IC50 (A549): 720 nM

SMILES: CCCCC[C@@]1(C[C@@H]2C(=O)O[C@H]3O[C@@]4(C)CC[C@H]5[C@H](C)CC[C@@H]2[C@@]35OO4)O[C@H]2O[C@@]3(C)CC[C@H]4[C@H](C)CC[C@@H]([C@H]1C)[C@@]24OO3
CC50 [1]: 63000 nM | IC50 [2]: 36000 nM | IC50 (KB): 23000 nM

SMILES: C[C@@H]1CC[C@H]2[C@@H](C)C(OCCN/C(=N/c3ccc(Cl)cc3Cl)NCCOC3O[C@@H]4O[C@]5(C)CC[C@@H]6[C@@H](C)CC[C@H]([C@@H]3C)[C@]46OO5)O[C@H]3O[C@@]4(C)CC[C@@H]1[C@]32OO4 (stereo partly drawn)
IC50 (MDA-MB-231): 2080 nM | IC50 (HT-29): 50 nM | IC50 (A549): 640 nM

SMILES: C[C@@H]1CC[C@H]2[C@@H](C)C(CSCCCCCSCC3O[C@@H]4O[C@]5(C)CC[C@@H]6[C@@H](C)CC[C@H]([C@@H]3C)[C@]46OO5)O[C@H]3O[C@@]4(C)CC[C@@H]1[C@]32OO4 (stereo partly drawn)
IC50 (Plasmodium falciparum [3]): 12 nM

SMILES: C[C@@H]1CC[C@H]2[C@@H](C)C(CSCCSCC3O[C@H]4O[C@@]5(C)CC[C@H]6[C@H](C)CC[C@@H]([C@H]3C)[C@@]46OO5)O[C@H]3O[C@@]4(C)CC[C@@H]1[C@]32OO4 (stereo partly drawn)
IC50 (Plasmodium falciparum [3]): 7.4 nM

SMILES: C[C@@H]1CC[C@H]2[C@@H](C)C(OCCN/C(=N/c3ccc(Cl)cc3)NCCOC3O[C@@H]4O[C@]5(C)CC[C@@H]6[C@@H](C)CC[C@H]([C@@H]3C)[C@]46OO5)O[C@H]3O[C@@]4(C)CC[C@@H]1[C@]32OO4 (stereo partly drawn)
IC50 (MDA-MB-231): 1260 nM | IC50 (HT-29): 100 nM | IC50 (A549): 980 nM

SMILES: C[C@H]1[C@H](CCCCC[C@H]2O[C@H]3O[C@@]4(C)CC[C@H]5[C@H](C)CC[C@@H]([C@H]2C)[C@@]35OO4)O[C@H]2O[C@@]3(C)CC[C@H]4[C@H](C)CC[C@@H]1[C@@]24OO3
CC50 [1]: 2800 nM | IC50 [2]: 360 nM | IC50 (Plasmodium falciparum [5]): 0.91 nM | IC50 (KB): 760 nM

IC50 (MCF7): 60 nM | IC50 (HT-29): 60 nM | IC50 (P388): 60 nM
SMILES: CO[C@@]12[C@H](COC(N)=O)C3=C(C(=O)C(C)=C(N)C3=O)N1C[C@@H]1N[C@@H]12 [MITOMYCIN]
IC50 (EL4): 60 nM | IC50 (BeWo): 60 nM

SMILES: C[C@@H]1CC[C@H]2[C@@H](C)C(CCNC(=O)CCC(N)C(=O)NCCC3O[C@H]4O[C@@]5(C)CC[C@H]6[C@H](C)CC[C@@H]([C@H]3C)[C@@]46OO5)O[C@H]3O[C@@]4(C)CC[C@@H]1[C@]32OO4 (stereo partly drawn)
IC50 (EL4): 22500 nM | IC50 (MCF7): 20900 nM | IC50 (HT-29): 8900 nM | IC50 (BeWo): > 27300 nM | IC50 (P388): 21300 nM

SMILES: C[C@@H]1CC[C@H]2[C@@H](C)C(CCOCc3cccc(COCCC4O[C@H]5O[C@@]6(C)CC[C@H]7[C@H](C)CC[C@@H]([C@H]4C)[C@@]57OO6)c3)O[C@H]3O[C@@]4(C)CC[C@@H]1[C@]32OO4 (stereo partly drawn)
IC50 (Plasmodium falciparum [4]): 2.1 nM | IC50 (Plasmodium falciparum [5]): 2.7 nM

SMILES: C[C@@H]1CC[C@H]2[C@@H](C)C(CCS(=O)(=O)CCCS(=O)(=O)CCC3O[C@@H]4O[C@]5(C)CC[C@@H]6[C@@H](C)CC[C@H]([C@@H]3C)[C@]46OO5)O[C@H]3O[C@@]4(C)CC[C@@H]1[C@]32OO4 (stereo partly drawn)
IC50 (EL4): 13100 nM | IC50 (MCF7): 7360 nM | IC50 (HT-29): 500 nM | IC50 (BeWo): 11200 nM | IC50 (P388): 11000 nM
